Data from ChEMBL document CHEMBL1152284, “The contribution of plukenetione A to the anti-tumoral activity of Cuban propolis” (Bioorg Med Chem, 2008).
≈ marks a conversion by molar mass, not a printed value. Calls of active or inactive are those of the source. The calls are words filed in the database; no cut-off is given here.

What was measured:
[1] = Antimetastatic activity in mouse EAC cells xenografted in NMRI mouse assessed as metastatic colony formation in lungs at 20 mg/kg, ip daily for 9 days relative to control; type: functional, Ehrlich; settings: route intraperitoneal
[2] = Cytotoxicity against human M51 cells after 24 hrs; type: functional, cell-based; settings: M51, 24 h
[3] = Cytotoxicity against human […] cells after 24 hrs; type: cell-based
HCT-8 [4] = assay: Cell cycle arrest in human HCT8 cells assessed as accumulation at G2/M phase at IC50 after 24 hrs by FACS analysis relative to control; type: functional
HCT-8 [5] = assay: Decrease in EGF receptor gene expression in human HCT8 cells at 2.5 times IC50 after 24 hrs by RT-PCR; type: functional, cell-based
[6] = target: DNA polymerase I, thermostable (Thermus aquaticus, UniProt P19821); assay: Inhibition of Taq DNA polymerase
Sequence of DNA polymerase I, thermostable (P19821 whole entry): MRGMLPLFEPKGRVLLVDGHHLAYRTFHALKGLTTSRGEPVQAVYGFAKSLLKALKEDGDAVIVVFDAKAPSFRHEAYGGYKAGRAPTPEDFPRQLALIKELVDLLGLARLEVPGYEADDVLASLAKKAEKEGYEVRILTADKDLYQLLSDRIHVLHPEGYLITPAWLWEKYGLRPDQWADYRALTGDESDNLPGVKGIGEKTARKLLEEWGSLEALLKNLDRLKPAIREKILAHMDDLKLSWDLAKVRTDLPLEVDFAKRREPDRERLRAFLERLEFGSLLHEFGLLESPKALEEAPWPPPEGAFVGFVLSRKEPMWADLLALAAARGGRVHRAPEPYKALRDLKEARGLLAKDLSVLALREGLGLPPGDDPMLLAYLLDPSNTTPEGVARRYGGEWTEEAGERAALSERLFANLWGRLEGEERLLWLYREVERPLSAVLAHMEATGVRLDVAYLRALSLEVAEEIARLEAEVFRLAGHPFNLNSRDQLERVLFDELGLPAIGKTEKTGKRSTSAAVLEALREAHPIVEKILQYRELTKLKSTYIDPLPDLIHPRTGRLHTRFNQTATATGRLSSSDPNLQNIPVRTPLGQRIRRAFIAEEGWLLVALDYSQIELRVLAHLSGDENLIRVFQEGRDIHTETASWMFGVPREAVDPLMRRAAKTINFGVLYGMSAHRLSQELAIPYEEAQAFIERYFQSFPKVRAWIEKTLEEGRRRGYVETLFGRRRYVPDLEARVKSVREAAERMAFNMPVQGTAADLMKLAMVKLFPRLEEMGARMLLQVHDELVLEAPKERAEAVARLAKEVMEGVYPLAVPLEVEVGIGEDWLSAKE

A2780 [7] = assay: Cytotoxicity against cisplatin-resistant human A2780 cells after 24 hrs; type: functional, cell-based; settings: A2780, 24 h
HCT-8 [8] = assay: Induction of late apoptosis in [14C]D-thymidine labeled human HCT8 cells assessed DNA fragmentation treated at 2.5 times IC50 for 8 hrs measured after 24 hrs by liquid scintillation counter; type: functional, cell-based
MCF7 [9] = assay: Cytotoxicity against doxorubicin-resistant human MCF7 cells after 24 hrs; type: functional, cell-based; settings: MCF7, 24 h
HCT-8 [10] = assay: Cell cycle arrest in human HCT8 cells assessed as accumulation at G0/G1 phase at IC50 after 24 hrs by FACS analysis relative to control; type: functional
HEK293 = assay: Cytotoxicity against HEK293 cells after 24 hrs; type: cell-based; settings: Homo sapiens, HEK293, 24 h
HCT-8 [11] = assay: Cytotoxicity against SN38-resistant human HCT8 cells after 24 hrs; type: functional, cell-based; settings: HCT-8, 24 h
A2780 [12] = assay: Cytotoxicity against doxorubicin-resistant human A2780 cells after 24 hrs; type: functional, cell-based; settings: A2780, 24 h
[13] = Cytotoxicity against cisplatin-resistant human M51 cells after 24 hrs; type: functional, cell-based; settings: M51, 24 h
Jurkat = assay: Cytotoxicity against human Jurkat cells after 24 hrs; type: functional, cell-based
HCT-8 [14] = assay: Decrease in topoisomerase 2 beta gene expression in human HCT8 cells at 2.5 times IC50 after 24 hrs by RT-PCR; type: functional, cell-based
HCT-8 [15] = assay: Induction of late apoptosis in [14C]D-thymidine labeled human HCT8 cells assessed DNA fragmentation treated at 10 times IC50 for 8 hrs measured after 24 hrs by liquid scintillation counter; type: functional, cell-based
LNCaP [16] = assay: Cytotoxicity against human LNCAP cells after 24 hrs; type: functional, cell-based
HT-29 [17] = assay: Cytotoxicity against human HT-29 cells after 24 hrs; type: functional, cell-based; settings: HT-29, 24 h
[18] = target: T1, DNA topoisomerase 1 (Homo sapiens) (UniProt P11387); assay: Inhibition of human topoisomerase 1-mediated relaxation of supercoiled pBR322 DNA up to 6.25 ug/mL after 30 mins by agarose gel electrophoresis
T1 sequence (whole entry): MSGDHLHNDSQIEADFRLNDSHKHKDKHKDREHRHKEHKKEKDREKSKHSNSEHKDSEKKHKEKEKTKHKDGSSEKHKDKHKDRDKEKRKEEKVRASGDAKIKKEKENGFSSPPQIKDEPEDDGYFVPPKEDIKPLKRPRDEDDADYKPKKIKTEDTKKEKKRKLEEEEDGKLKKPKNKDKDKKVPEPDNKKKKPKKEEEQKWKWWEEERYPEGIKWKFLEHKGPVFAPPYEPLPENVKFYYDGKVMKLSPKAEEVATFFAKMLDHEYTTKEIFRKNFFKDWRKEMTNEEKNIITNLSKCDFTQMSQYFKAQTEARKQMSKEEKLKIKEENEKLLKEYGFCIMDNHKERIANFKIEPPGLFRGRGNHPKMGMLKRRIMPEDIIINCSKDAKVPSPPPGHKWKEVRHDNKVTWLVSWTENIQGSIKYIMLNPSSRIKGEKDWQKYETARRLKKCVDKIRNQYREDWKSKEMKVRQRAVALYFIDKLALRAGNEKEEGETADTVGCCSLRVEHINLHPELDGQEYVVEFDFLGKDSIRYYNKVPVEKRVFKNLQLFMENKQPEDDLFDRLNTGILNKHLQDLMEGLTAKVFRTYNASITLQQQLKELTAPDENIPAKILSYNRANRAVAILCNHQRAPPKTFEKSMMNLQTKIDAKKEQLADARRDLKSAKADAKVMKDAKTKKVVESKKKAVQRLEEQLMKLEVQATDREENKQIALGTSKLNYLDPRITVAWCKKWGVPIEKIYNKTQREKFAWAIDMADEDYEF

LNCaP [19] = assay: Cytotoxicity against etoposide-resistant human LNCAP cells after 24 hrs; type: functional, cell-based
MCF7 [20] = assay: Cytotoxicity against human MCF7 cells after 24 hrs; type: functional, cell-based; settings: MCF7, 24 h
[21] = Inhibition of Moloney murine leukemia virus reverse transcriptase
HCT-8 [22] = assay: Cytotoxicity against human HCT8 cells after 24 hrs; type: functional, cell-based; settings: HCT-8, 24 h
NCI-H460 = assay: Cytotoxicity against human H460 cells after 24 hrs; type: functional, cell-based; settings: NCI-H460, 24 h
HT-29 [23] = assay: Cytotoxicity against 5-FU-resistant human HT-29 cells after 24 hrs; type: functional, cell-based; settings: HT-29, 24 h
MCF7 [24] = assay: Cytotoxicity against 5-FU-resistant human MCF7 cells after 24 hrs; type: functional, cell-based; settings: MCF7, 24 h
[25] = target: T1, DNA topoisomerase 1 (Homo sapiens); assay: Inhibition of human topoisomerase 1-mediated relaxation of supercoiled pBR322 DNA up to 12.5 ug/mL after 30 mins by agarose gel electrophoresis
HCT-8 [26] = assay: Decrease in multidrug-resistant related protein gene expression in human HCT8 cells at 2.5 times IC50 after 24 hrs by RT-PCR; type: functional, cell-based
A2780 [27] = assay: Cytotoxicity against human A2780 cells after 24 hrs; type: functional, cell-based; settings: A2780, 24 h
HCT-8 [28] = assay: Cell cycle arrest in human HCT8 cells assessed as accumulation at S phase at IC50 after 24 hrs by FACS analysis relative to control; type: functional
HT-29 [29] = assay: Cytotoxicity against SN38-resistant human HT-29 cells after 24 hrs; type: functional, cell-based; settings: HT-29, 24 h
[30] = Inhibition of HIV reverse transcriptase; set-up: species or system Human immunodeficiency virus
HCT-8 [31] = assay: Cytotoxicity against raltitrexed-resistant human HCT8 cells after 24 hrs; type: functional, cell-based; settings: HCT-8, 24 h
PC-3 = assay: Cytotoxicity against human PC3 cells after 24 hrs; type: functional, cell-based; settings: PC-3, 24 h
[32] = Cytotoxicity against etoposide-resistant human LAN1 cells after 24 hrs; type: functional, cell-based; settings: LAN1, 24 h
K562 = assay: Cytotoxicity against human K562 cells after 24 hrs; type: functional, cell-based; settings: K562, 24 h
[33] = Cytotoxicity against human LAN1 cells after 24 hrs; type: functional, cell-based; settings: LAN1, 24 h
[34] = Cytotoxicity against cisplatin-resistant human LAN1 cells after 24 hrs; type: functional, cell-based; settings: LAN1, 24 h
[35] = Cytotoxicity against 5-FU-resistant human LAN1 cells after 24 hrs; type: functional, cell-based; settings: LAN1, 24 h

SMILES	IC50 [2] [µg/mL]	IC50 [3] [µg/mL]	IC50 (A2780 [7]) [µg/mL]	IC50 (MCF7 [9]) [µg/mL]	IC50 (HEK293) [µg/mL]	IC50 (HCT-8 [11]) [µg/mL]	IC50 (A2780 [12]) [µg/mL]	IC50 [13] [µg/mL]	IC50 (Jurkat) [µg/mL]	IC50 (LNCaP [16]) [µg/mL]	IC50 (HT-29 [17]) [µg/mL]	IC50 (LNCaP [19]) [µg/mL]	IC50 (MCF7 [20]) [µg/mL]	IC50 (HCT-8 [22]) [µg/mL]	IC50 (NCI-H460) [µg/mL]	IC50 (HT-29 [23]) [µg/mL]	IC50 (MCF7 [24]) [µg/mL]	IC50 (A2780 [27]) [µg/mL]	IC50 (HT-29 [29]) [µg/mL]	IC50 (HCT-8 [31]) [µg/mL]	also measured
O=c1[nH]cc(F)c(=O)[nH]1 [FLUOROURACIL]																					Activity [1]: 23.8%
CC(C)=CC[C@]12C[C@@H]3[C@H](C=C(C)C)[C@](CC=C(C)C)(C1=O)C(=O)[C@](C(=O)c1ccccc1)(C2=O)C3(C)C [PLUKENETIONE A]	6.53 (≈ 13 µM)	15.7 (≈ 31.4 µM)	15.9 (≈ 31.8 µM)	15 (≈ 29.9 µM)	32.1 (≈ 64.1 µM)	11.7 (≈ 23.3 µM)	14.5 (≈ 28.9 µM)	7.6 (≈ 15.2 µM)	5.28 (≈ 10.5 µM)	1.98 (≈ 3.95 µM)	12 (≈ 24 µM)	1.72 (≈ 3.44 µM)	16.3 (≈ 32.5 µM)	12.9 (≈ 25.8 µM)	13.4 (≈ 26.8 µM)	14.2 (≈ 28.4 µM)	10 (≈ 20 µM)	13.3 (≈ 26.6 µM)	13.3 (≈ 26.6 µM)	12.1 (≈ 24.2 µM)	Activity (HCT-8 [4]): 20.6%; Activity (HCT-8 [5]): Active; IC50 [6]: 12.5 µM; Activity (HCT-8 [8]): Active; Activity (HCT-8 [10]): 52.1%; Activity (HCT-8 [14]): Active; Activity (HCT-8 [15]): Active; Activity [18]: Active; IC50 [21]: 1.5 µg/mL (≈ 3 µM); Activity [25]: Active; Activity (HCT-8 [26]): Active; Activity (HCT-8 [28]): 4.3%; IC50 [30]: 1.5 µg/mL (≈ 3 µM)
CC(C)=CCC1=C(O)[C@@]2(C(=O)c3ccccc3)C(=O)[C@](CC=C(C)C)(C[C@H](CC=C(C)C)C2(C)C)C1=O	5.7 (≈ 11.3 µM)	21.7 (≈ 43.2 µM)	6.23 (≈ 12.4 µM)	4.28 (≈ 8.51 µM)	4.2 (≈ 8.35 µM)	4.07 (≈ 8.1 µM)	6.75 (≈ 13.4 µM)	4.77 (≈ 9.49 µM)	4.6 (≈ 9.15 µM)	2.12 (≈ 4.22 µM)	5.25 (≈ 10.4 µM)	1.81 (≈ 3.6 µM)	4.37 (≈ 8.69 µM)	4.23 (≈ 8.41 µM)	4.21 (≈ 8.37 µM)	5.18 (≈ 10.3 µM)	3.3 (≈ 6.56 µM)	9.2 (≈ 18.3 µM)	3.5 (≈ 6.96 µM)	4.44 (≈ 8.83 µM)	IC50 (PC-3): 2.01 µg/mL (≈ 4 µM); IC50 [32]: 9.18 µg/mL (≈ 18.3 µM); IC50 (K562): 4.2 µg/mL (≈ 8.35 µM); IC50 [33]: 8.2 µg/mL (≈ 16.3 µM); IC50 [34]: 8.44 µg/mL (≈ 16.8 µM); IC50 [35]: 8.24 µg/mL (≈ 16.4 µM)
COc1ccc([C@H]2COc3cc(O)ccc3C2)c(OC)c1O [MUCRONULATOL]				> 50	2.5 (≈ 8.27 µM)								2.52 (≈ 8.34 µM)	2.6 (≈ 8.6 µM)							IC50 [32]: > 50 µg/mL; IC50 [33]: 10.1 µg/mL (≈ 33.4 µM); IC50 [34]: 10.2 µg/mL (≈ 33.8 µM); IC50 [35]: 8.22 µg/mL (≈ 27.2 µM)
